Data published in patent publication US20240269303A1, “CELL TARGETING CONSTRUCTS AND USES THEREOF” (Research Development Foundation, priority 2022, published 2024).
Square brackets hold non-standard residues; d marks the D form. Peptide text beside a SMILES is read from it. * marks the point of attachment. Dolaproine = CO[C@@H]([C@@H]1CCCN1)[C@@H](C)C(=O)O; Dil = CC[C@H](C)[C@H](NC)[C@@H](CC(=O)O)OC; X1 = C[C@@H](N*)[C@@H](O)c1ccccc1; NMeV = CN[C@H](C(=O)O)C(C)C

Legend:
OVCAR8/EV cells = test: Growth rate inhibition assay (CCK8, 120 h exposure); format: cell-based, human; settings: OVCAR8/EV (LGR5-poor) cells
OVCAR8/LGR5 cells = test: as above; format: cell-based, human
HEK293/LGR5 cells = test: as above; format: cell-based, human
LGR6 = molecular target: T1, LGR6 (Homo sapiens, UniProt Q9HBX8); settings: read-out: affinity; cited from earlier work
T1 sequence (Q9HBX8 25-967): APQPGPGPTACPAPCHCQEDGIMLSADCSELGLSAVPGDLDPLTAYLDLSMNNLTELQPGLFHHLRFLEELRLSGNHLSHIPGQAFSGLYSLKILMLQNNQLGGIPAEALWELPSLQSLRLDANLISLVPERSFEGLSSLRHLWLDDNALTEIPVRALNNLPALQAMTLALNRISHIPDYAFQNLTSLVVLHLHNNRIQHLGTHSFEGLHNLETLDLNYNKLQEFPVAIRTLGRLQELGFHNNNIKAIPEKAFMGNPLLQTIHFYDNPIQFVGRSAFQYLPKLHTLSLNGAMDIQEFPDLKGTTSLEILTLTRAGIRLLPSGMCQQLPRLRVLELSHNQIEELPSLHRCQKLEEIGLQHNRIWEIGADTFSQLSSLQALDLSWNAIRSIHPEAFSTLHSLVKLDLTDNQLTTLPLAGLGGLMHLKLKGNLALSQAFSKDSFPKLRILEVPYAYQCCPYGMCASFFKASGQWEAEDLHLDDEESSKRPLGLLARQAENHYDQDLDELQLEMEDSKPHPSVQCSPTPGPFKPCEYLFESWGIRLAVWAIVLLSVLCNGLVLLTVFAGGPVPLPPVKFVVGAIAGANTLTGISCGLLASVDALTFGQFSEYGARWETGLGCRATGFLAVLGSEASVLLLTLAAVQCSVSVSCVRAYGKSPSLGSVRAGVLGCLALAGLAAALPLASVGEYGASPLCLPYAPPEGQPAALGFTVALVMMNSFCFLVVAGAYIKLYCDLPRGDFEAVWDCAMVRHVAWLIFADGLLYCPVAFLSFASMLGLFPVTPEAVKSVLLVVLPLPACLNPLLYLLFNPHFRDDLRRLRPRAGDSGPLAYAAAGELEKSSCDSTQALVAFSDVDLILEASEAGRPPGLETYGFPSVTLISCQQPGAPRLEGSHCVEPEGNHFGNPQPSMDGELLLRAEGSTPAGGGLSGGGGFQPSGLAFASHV

LGR5 = molecular target: T2, LGR5 (Homo sapiens, UniProt O75473); settings: read-out: affinity; cited from earlier work
T2 sequence (O75473 22-907): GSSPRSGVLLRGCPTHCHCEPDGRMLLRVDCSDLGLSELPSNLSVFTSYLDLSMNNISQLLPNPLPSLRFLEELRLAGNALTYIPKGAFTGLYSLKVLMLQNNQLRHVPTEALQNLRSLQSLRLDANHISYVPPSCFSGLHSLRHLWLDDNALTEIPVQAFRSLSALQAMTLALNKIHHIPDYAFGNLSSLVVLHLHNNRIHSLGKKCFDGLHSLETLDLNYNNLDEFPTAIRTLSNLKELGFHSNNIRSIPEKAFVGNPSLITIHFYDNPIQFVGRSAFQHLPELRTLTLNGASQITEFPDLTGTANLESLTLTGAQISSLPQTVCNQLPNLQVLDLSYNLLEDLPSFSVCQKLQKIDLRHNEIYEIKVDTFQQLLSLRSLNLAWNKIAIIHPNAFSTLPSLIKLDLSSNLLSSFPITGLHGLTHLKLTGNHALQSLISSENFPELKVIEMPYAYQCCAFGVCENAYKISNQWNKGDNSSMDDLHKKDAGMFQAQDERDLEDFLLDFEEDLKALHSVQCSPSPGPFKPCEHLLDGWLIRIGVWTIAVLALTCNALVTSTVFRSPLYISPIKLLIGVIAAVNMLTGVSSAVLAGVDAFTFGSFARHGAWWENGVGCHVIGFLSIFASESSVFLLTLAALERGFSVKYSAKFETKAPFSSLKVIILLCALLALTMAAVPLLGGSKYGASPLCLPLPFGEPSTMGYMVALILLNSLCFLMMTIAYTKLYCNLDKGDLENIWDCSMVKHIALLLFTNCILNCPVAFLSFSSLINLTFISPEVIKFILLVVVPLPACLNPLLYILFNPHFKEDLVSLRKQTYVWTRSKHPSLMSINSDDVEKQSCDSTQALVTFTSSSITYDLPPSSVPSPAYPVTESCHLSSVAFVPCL

What does the source list for `CC[C@H](C)[C@@H]([C@@H](CC(=O)N1CCC[C@H]1[C@H](OC)[C@@H](C)C(=O)N[C@H](C)[C@@H](O)c1ccccc1)OC)N(C)C(=O)[C@@H](NC(=O)[C@@H](NC)C(C)C)C(C)C` [free MMAE, Monomethyl auristatin E, reference compound] (H-[NMeV]V[Dil][Dolaproine]-X1)?
IC50 (OVCAR8/EV cells): 0.085 µM; OVCAR8/LGR5 cells more resistant than OVCAR8/EV cells (OVCAR8/LGR5 cells): 1.5 fold; IC50 (OVCAR8/LGR5 cells; OVCAR8/LGR5 (LGR5-rich) cells, 120 h exposure, CCK8): 0.129 µM; HEK293/LGR5 cells more resistant than HEK293/EV cells (HEK293/LGR5 cells): 1.6 fold

Which Kd (LGR6) does the source give for “Fu1-Fu2 domain of RSPO1: receptor-binding Fu1-Fu2 domain of human RSPO1” here?
Its Kd is ~0.003 µM.

What about the Kd (LGR5) of the same compound?
Its Kd is ~0.003 µM.
